Patent US20160101108A1, “PRINTED DOSAGE FORMS” (ÅBO AKADEMI UNIVERSITY, priority 2013, published 2016)

Assay: Actual dose of vitamin on inkjet-printed areas, immersed in water, by UV/Vis absorbance
Format: physicochemical
Conditions: for Vitamin B3 dose, measured: 262 nm
Description: Two different ink solutions were used to print the vitamins onto the substrates. […] The solutions were filtered with 0.2 μm polypropylene membrane filter (Whatman, GE Healthcare, Piscataway, N.J., USA) before printing. Inkjet printing was performed with a […] printer (Fujifilm […] Clara, Calif., USA). In the printer, a MEMS-based cartridge-styled printhead with 16 nozzles linearly spaced at 254 μm that produce a nominal drop size of […] was used. Printing was performed in ambient conditions (relative humidity 45.5±5%, 21±1° C.) with a single nozzle using firing voltage of 35 V. The cartridge temperature was 30° C., and the drops were deposited at a drop spacing of 10 μm, 20 μm and 30 μm. The vitamins were printed in squares of 1 cm×1 cm on normal copy paper (n=6) and on multilayer curtain coated paper (n=1). […] Each printed area was immersed into predetermined amount of water and vigorously shaken. […] The calibration curves were done in water, as well.

Row | SMILES | Vitamin B2 dose, measured (drop spacing 10, 4 h incubation in water, 267 nm, theoretical 0.32 mg) [mg] | Vitamin B2 dose, measured (drop spacing 10, 4 h incubation in water, 373 nm, theoretical 0.32 mg) [mg] | Vitamin B2 dose, measured (drop spacing 10, second set of rows (no time heading printed), 267 nm, theoretical 0.32 mg) [mg] | Vitamin B2 dose, measured (drop spacing 10, second set of rows (no time heading printed), 373 nm, theoretical 0.32 mg) [mg] | Vitamin B2 dose, measured (drop spacing 20, 4 h incubation in water, 267 nm, theoretical 0.08 mg) [mg] | Vitamin B2 dose, measured (drop spacing 20, 4 h incubation in water, 373 nm, theoretical 0.08 mg) [mg] | Vitamin B2 dose, measured (drop spacing 20, second set of rows (no time heading printed), 267 nm, theoretical 0.08 mg) [mg] | Vitamin B2 dose, measured (drop spacing 20, second set of rows (no time heading printed), 373 nm, theoretical 0.08 mg) [mg] | Vitamin B2 dose, measured (drop spacing 30, 4 h incubation in water, 267 nm, theoretical 0.035 mg) [mg] | Vitamin B2 dose, measured (drop spacing 30, 4 h incubation in water, 373 nm, theoretical 0.035 mg) [mg] | Vitamin B2 dose, measured (drop spacing 30, second set of rows (no time heading printed), 267 nm, theoretical 0.035 mg) [mg] | Vitamin B2 dose, measured (drop spacing 30, second set of rows (no time heading printed), 373 nm, theoretical 0.035 mg) [mg] | Vitamin B3 dose, measured (drop spacing 10, 4 h incubation in water, 1 cm x 1 cm printed area, theoretical 0.501 mg) [mg] | Vitamin B3 dose, measured (drop spacing 10, 24 h incubation in water, theoretical 0.501 mg) [mg] | Vitamin B3 dose, measured (drop spacing 20, 4 h incubation in water, 1 cm x 1 cm printed area, theoretical 0.125 mg) [mg] | Vitamin B3 dose, measured (drop spacing 20, 24 h incubation in water, theoretical 0.125 mg) [mg] | Vitamin B3 dose, measured (drop spacing 30, 4 h incubation in water, 1 cm x 1 cm printed area, theoretical 0.056 mg) [mg] | Vitamin B3 dose, measured (drop spacing 30, 24 h incubation in water, theoretical 0.056 mg) [mg]
1 | Cc1cc2nc3c(=O)[nH]c(=O)nc-3n(C[C@H](O)[C@H](O)[C@H](O)COP(=O)(O)O)c2cc1C [Vitamin B2, riboflavin sodium phosphate] | 0.6255 | 0.6459 | 0.5847 | 0.6141 | 0.1337 | 0.1403 | 0.1199 | 0.1276 | 0.0623 | 0.0658 | 0.0521 | 0.0560 | – | – | – | – | – | –
2 | O=C(O)c1cccnc1 [Vitamin B3, niacin] | – | – | – | – | – | – | – | – | – | – | – | – | 0.7594 | 0.7323 | 0.2213 | 0.2142 | 0.0717 | 0.0687
